From ChEMBL document CHEMBL1201862, “PubChem BioAssay data set” (2004)
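Protocol summary: plate cells (96-well), add compound at 5 concentrations, incubate 48 h, interpolate endpoints linearly. GI50: concentration for 50% inhibition of growth.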 The source made the active and inactive calls. No stated cut-off is given here; in the data, active = GI50 up to about 1.1 µM and inactive = higher.

What was measured:
Assay in all cases: inhibition of tumour cell growth, NCI panel, 48 h
NCI-H23 = tested on: NCI-H23
SK-MEL-28 = tested on: SK-MEL-28
NCI/ADR-RES = tested on: NCI/ADR-RES
HCT-15 = tested on: HCT-15
RPMI-8226 = tested on: RPMI-8226
TK-10 = tested on: TK-10
UACC-257 = tested on: UACC-257
HOP-62 = tested on: HOP-62
HL-60 = tested on: HL-60
Malme-3M = tested on: Malme-3M
SK-MEL-5 = tested on: SK-MEL-5
MOLT-4 = tested on: MOLT-4
MCF7 = tested on: MCF7
OVCAR-3 = tested on: OVCAR-3
HOP-92 = tested on: HOP-92
U-251 = tested on: U-251
KM12 = tested on: KM12
SR = tested on: SR
EKVX = tested on: EKVX
NCI-H226 = tested on: NCI-H226

**Q.** `O=c1[nH]c(-c2ccc(Cl)cc2)cc2ccsc12` was tested. Which GI50 (NCI-H23) did it give?
**A.** 4.92 µM (inactive)

**Q.** And the GI50 (SK-MEL-28)?
**A.** 5.15 µM (inactive)

**Q.** And the GI50 (NCI/ADR-RES)?
**A.** 3.56 µM (inactive)

**Q.** What about the GI50 (HCT-15) of the same compound?
**A.** 2.26 µM

**Q.** What about the GI50 (RPMI-8226) of the same compound?
**A.** 3.1 µM (inactive)

**Q.** And the GI50 (TK-10)?
**A.** 2.82 µM (inactive)

**Q.** And the GI50 (UACC-257)?
**A.** 0.662 µM (active)

**Q.** What about the GI50 (HOP-62) of the same compound?
**A.** 8.07 µM (inactive)

**Q.** And the GI50 (HL-60)?
**A.** 2.94 µM (inactive)

**Q.** What about the GI50 (Malme-3M) of the same compound?
**A.** 1.2 µM (inactive)

**Q.** What about the GI50 (SK-MEL-5) of the same compound?
**A.** 4.41 µM (inactive)

**Q.** And the GI50 (MOLT-4)?
**A.** 3.78 µM (inactive)

**Q.** And the GI50 (MCF7)?
**A.** 5.05 µM (inactive)

**Q.** And the GI50 (OVCAR-3)?
**A.** 1.66 µM (inactive)

**Q.** And the GI50 (HOP-92)?
**A.** 10.6 µM (inactive)

**Q.** And the GI50 (U-251)?
**A.** 3.14 µM (inactive)

**Q.** And the GI50 (KM12)?
**A.** 3.21 µM (inactive)

**Q.** And the GI50 (SR)?
**A.** 0.506 µM (active)

**Q.** What about the GI50 (EKVX) of the same compound?
**A.** 8.38 µM (inactive)

**Q.** And the GI50 (NCI-H226)?
**A.** > 100 µM (inactive)

**Q.** For `COc1ccc(C[C@H](N)C(=O)N2C[C@H](CO)C[C@H](n3ccc(=O)[nH]c3=O)C2)cc1`, which GI50 (NCI-H23) is on record?
**A.** > 100 µM (inactive)

**Q.** And the GI50 (SK-MEL-28)?
**A.** > 100 µM (inactive)

**Q.** What about the GI50 (HCT-15) of the same compound?
**A.** > 100 µM

**Q.** What about the GI50 (RPMI-8226) of the same compound?
**A.** > 100 µM (inactive)

**Q.** And the GI50 (TK-10)?
**A.** > 100 µM (inactive)

**Q.** And the GI50 (HOP-62)?
**A.** > 100 µM (inactive)

**Q.** And the GI50 (HL-60)?
**A.** 58.3 µM (inactive)

**Q.** And the GI50 (Malme-3M)?
**A.** > 100 µM (inactive)

**Q.** What about the GI50 (SK-MEL-5) of the same compound?
**A.** > 100 µM (inactive)

**Q.** What about the GI50 (MOLT-4) of the same compound?
**A.** > 100 µM (inactive)

**Q.** And the GI50 (OVCAR-3)?
**A.** > 100 µM (inactive)

**Q.** And the GI50 (HOP-92)?
**A.** > 100 µM (inactive)

**Q.** And the GI50 (U-251)?
**A.** > 100 µM (inactive)

**Q.** And the GI50 (KM12)?
**A.** > 100 µM (inactive)

**Q.** What about the GI50 (SR) of the same compound?
**A.** > 100 µM (inactive)

**Q.** And the GI50 (EKVX)?
**A.** > 100 µM (inactive)

**Q.** And the GI50 (NCI-H226)?
**A.** > 100 µM (inactive)

**Q.** Which GI50 (SK-MEL-28) does the source give for `O=C1c2ccccc2C(=O)N1CC(O)COc1cccc2ccccc12` (stereo unspecified) here?
**A.** > 100 µM (inactive)

**Q.** What about the GI50 (NCI/ADR-RES) of the same compound?
**A.** > 100 µM (inactive)

**Q.** And the GI50 (HCT-15)?
**A.** > 100 µM

**Q.** And the GI50 (RPMI-8226)?
**A.** > 100 µM (inactive)

**Q.** What about the GI50 (TK-10) of the same compound?
**A.** > 100 µM (inactive)

**Q.** And the GI50 (UACC-257)?
**A.** > 100 µM (inactive)

**Q.** What about the GI50 (HOP-62) of the same compound?
**A.** > 100 µM (inactive)

**Q.** And the GI50 (HL-60)?
**A.** > 100 µM (inactive)

**Q.** What about the GI50 (Malme-3M) of the same compound?
**A.** 61.8 µM (inactive)

**Q.** What about the GI50 (SK-MEL-5) of the same compound?
**A.** 63.5 µM (inactive)

**Q.** What about the GI50 (MOLT-4) of the same compound?
**A.** > 100 µM (inactive)

**Q.** What about the GI50 (MCF7) of the same compound?
**A.** > 100 µM (inactive)

**Q.** What about the GI50 (OVCAR-3) of the same compound?
**A.** > 100 µM (inactive)

**Q.** And the GI50 (U-251)?
**A.** > 100 µM (inactive)

**Q.** And the GI50 (SR)?
**A.** > 100 µM (inactive)

**Q.** And the GI50 (EKVX)?
**A.** > 100 µM (inactive)

**Q.** Which results are given for `CC(=O)OC1CCC2(C)C(CCC3C2CCC2(C)C(c4ccc(=O)oc4)C(OC(C)=O)CC32O)C1` (stereo unspecified)?
**A.** GI50 (NCI-H23): 0.0154 µM (active); GI50 (SK-MEL-28): 0.0277 µM (active); GI50 (NCI/ADR-RES): 0.0191 µM (active); GI50 (HCT-15): 0.0136 µM; GI50 (RPMI-8226): 0.0148 µM (active); GI50 (UACC-257): 0.023 µM (active); GI50 (HOP-62): 0.015 µM (active); GI50 (HL-60): 0.0154 µM (active); GI50 (Malme-3M): 0.0125 µM (active); GI50 (SK-MEL-5): 0.0164 µM (active); GI50 (MOLT-4): 0.0163 µM (active); GI50 (MCF7): 0.0164 µM (active); GI50 (OVCAR-3): 0.0161 µM (active); GI50 (HOP-92): 0.0195 µM (active); GI50 (U-251): 0.0184 µM (active); GI50 (KM12): 0.0172 µM (active); GI50 (EKVX): 0.0168 µM (active); GI50 (NCI-H226): 0.0356 µM (active)
